Here are results for five compounds from US10793482B2, “Compounds and compositions for delivery of nutrients and micronutrients to plants” (Spero Energy, Inc., priority 2015, dated 2020).

Format in all cases: in vivo
In assay [1] the test system is bell pepper plants, Capsicum annuum. The assay is described as follows: Iron content in leaves of bell pepper plants grown hydroponically with Fe chelates (elemental analysis). The following applies: for Iron content in plant leaves: leaves after week 2, finished iron solution of 4 ppm in no-iron Steiner hydroponic solution, pH 8; for Amount of iron delivered / iron content by plant tissue analyses (in words): bell pepper plants, 4 ppm iron chelate, compared with EDTA or EDDHA chelates. On the procedure: (§1) Seven (7) identical cultivated varieties of bell pepper plants, Capsicum annuum were grown in individual five-gallon containers deep-water-culture (DWC) containers (the Root Spa bucket system by Hydrofarm) that is continuously aerated by a single oxygen line that stems from an air pump in a soilless media of rockwool surrounded by clay pebbles in a mesh tray that rests on top of the buckets. The pepper plants were grown indoors with an ambient air temperature of around 72° F. The light source came from high-pressure sodium bulbs with a light interval of 12 hours on and 12 hours off.
(§2) The pepper plants were grown with a beginning identical nutritional mix similar to that of a Steiner hydroponic solution. […] The total solution pH was raised to 8 and adjusted daily to maintain the pH at 8. Potassium hydroxide was used to increase the pH. There were 7 treatments of iron added (or not added) to each bucket as follows:
(§3) As more water was needed, the appropriate amount of no-iron Steiner solution and Fe-chelate/Fe-chelate mixture was added to maintain a finished iron solution of 4 ppm.
(§4) Leaf samples (at least two per plant) were collected at the end of the normal nutritional program (2 weeks). […] Elemental analyses of iron content in the plants leaves was carried out after week 2.

The test system of assay [2] is Petunia plants. The assay is described as follows: Iron content in plant tissue after drench with Fe treatments (elemental analysis), Petunia. The conditions noted are these: 4 ppm drench for 3 weeks; soilless media with lime, target pH 7.0. As to the method:
(§5) In order to establish the efficacy of PP-derived chelates, we applied the PP-Cres-Asp iron chelate to two plant species known in the field to have difficulties in absorbing iron, Calibrachoa and Petunia plants. In this trial, the plants were grown in soilless media (80% peat and 20% perlite) with lime to increase the target pH to 7.0, a pH that is averse to iron uptake in plants. All plants were top dressed with a standard polymer-coated fertilizer to provide the standard nitrogen, phosphorus, and potassium nutrition along with other micro nutrients, excluding iron. Lighting was controlled for 16-hour days. There were 3 treatments of iron added (or not added) to each bucket as follows:
(§6) Treatments 1-3 were applied to the respective plants as a drench for 3 weeks. Following 3 weeks of treatment, tissue samples were gathered from each plant and subjected to elemental analysis for measurement of iron content in the plant tissue.

In assay [3] the test system is Calibrachoa plants. The assay is described as follows: Iron content in plant tissue after drench with Fe treatments (elemental analysis), Calibrachoa. The following applies: 4 ppm drench for 3 weeks; soilless media with lime, target pH 7.0. As to the method: as §5, §6
Assay [4] relates to bell pepper plants, Capsicum annuum. Description: Overall plant growth of bell pepper plants grown hydroponically with Fe chelates. The following applies: 2 weeks; 4 ppm iron, Steiner hydroponic solution, pH 8; compared with Fe EDTA and Fe EDDHA. On the procedure:
as §1, §2, §3, §4

“ethylenediamine-N,N′-bis(2-hydroxyphenylacetic acid [Fe EDDHA, reference compound]”: the “Iron content in plant leaves” value in assay [1] amounted to 91 ppm.

Turning to `Cc1ccc(O)c(CN(Cc2cc(C)ccc2O)C(CC(=O)O)C(=O)O)c1` (stereo not drawn) [PP-Cres-Asp], the “Fe in plant tissue, Petunia” value in assay [2] was found to be 80 ppm. Besides, the “Fe in plant tissue, Calibrachoa” value in assay [3] amounted to 56 ppm.

As to `CCCc1cc(CN(CC(=O)O)CC(=O)O)c(O)c(OC)c1` [DHE-IDA], the “Overall growth of the plants” value in assay [4] is “comparable to controls using conventional EDTA or EDDHA and superior to plants where only iron salts without chelate were used”. Besides, the “Amount of iron delivered / iron content by plant tissue analyses (in words)” value in assay [1] is recorded as “substantially greater than EDTA or EDDHA chelates”.

For p-cresol iminodiacetic acid [Cres-IDA], the “Amount of iron delivered / iron content by plant tissue analyses (in words)” value in assay [1] is listed as “substantially greater than EDTA or EDDHA chelates”.

On to `O=C(O)CN(CCN(CC(=O)O)CC(=O)O)CC(=O)O` [Fe EDTA, ethylenediaminetetraacetic acid, reference compound], for which, in assay [2], the “Fe in plant tissue, Petunia” value is listed as 45 ppm. In addition, the “Iron content in plant leaves” value in assay [1] worked out at 134 ppm. In assay [3], the “Fe in plant tissue, Calibrachoa” value is 39 ppm.
